Measurements taken from article PMC12621043, “Un-LOK-ing a New Approach for Conformational Selective Targeting of STK10 (LOK)” (ACS Medicinal Chemistry Letters, 2025).

The molecules below were run against T1, BMP2KA (Homo sapiens, UniProt Q9NSY1) (assay: DSF Tm panel). Details: 10 μM compound.
T1 construct: purchased in-house DSF kinase panel (SGC-style construct names; the trailing letter is the construct ID)
Assay type: binding

T1 sequence (Q9NSY1 38-345): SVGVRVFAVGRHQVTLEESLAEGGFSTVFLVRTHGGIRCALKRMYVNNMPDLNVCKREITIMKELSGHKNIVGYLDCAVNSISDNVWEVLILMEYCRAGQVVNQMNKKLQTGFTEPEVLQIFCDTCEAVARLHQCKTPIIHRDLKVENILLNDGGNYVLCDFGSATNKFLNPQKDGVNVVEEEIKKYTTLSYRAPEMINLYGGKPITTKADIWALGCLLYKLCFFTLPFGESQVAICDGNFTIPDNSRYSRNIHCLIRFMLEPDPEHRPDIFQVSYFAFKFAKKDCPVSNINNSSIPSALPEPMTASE

Compared with `O=C(NCc1ccc(C(F)(F)F)cc1)Nc1ccc2cc1OCCOCCNc1ccn3ncc-2c3n1` [compound 28], `COc1ccc(CNC(=O)Nc2ccc3cc2OCCOCCNc2ccn4ncc-3c4n2)cc1` [compound 31] is higher in ΔTm at 10 µM: 7.7 °C for the first, 12 °C for the second.

`CN1CCN(C(=O)Nc2ccc3cc2OCCOCCNc2ccn4ncc-3c4n2)CC1` [compound 35] was tested, and the ΔTm at 10 µM was 11.8 °C.

Each molecule was assayed against T2, AAK1 (AAK1A) (Homo sapiens, UniProt Q2M2I8) (assay: DSF Tm panel). Details: 10 μM compound.
T2 construct: purchased in-house DSF kinase panel (SGC-style construct names; the trailing letter is the construct ID)
T2 sequence (Q2M2I8 27-365): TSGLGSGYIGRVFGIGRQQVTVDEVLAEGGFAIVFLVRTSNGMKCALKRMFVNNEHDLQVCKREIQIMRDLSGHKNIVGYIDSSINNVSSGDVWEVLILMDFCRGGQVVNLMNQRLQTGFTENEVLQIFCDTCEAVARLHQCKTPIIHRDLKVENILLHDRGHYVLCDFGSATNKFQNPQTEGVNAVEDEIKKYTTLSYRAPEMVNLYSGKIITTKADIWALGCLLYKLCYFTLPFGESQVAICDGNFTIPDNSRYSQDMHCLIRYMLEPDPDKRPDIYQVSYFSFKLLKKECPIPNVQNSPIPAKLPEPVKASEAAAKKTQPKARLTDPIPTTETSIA
Assay type: binding

Going from `O=C(NCc1ccc(C(F)(F)F)cc1)Nc1ccc2cc1OCCOCCNc1ccn3ncc-2c3n1` [compound 28] to `COc1ccc(CNC(=O)Nc2ccc3cc2OCCOCCNc2ccn4ncc-3c4n2)cc1` [compound 31], the ΔTm at 10 µM rises from 4.7 °C to 6.7 °C.

`CN1CCN(C(=O)Nc2ccc3cc2OCCOCCNc2ccn4ncc-3c4n2)CC1` [compound 35] gave a ΔTm at 10 µM of 7.7 °C.

What follows are molecules tested against T3, STK3 (STK3A) (Homo sapiens, UniProt Q13188) (assay: DSF Tm panel). Details: 10 μM compound.
T3 construct: purchased in-house DSF kinase panel (SGC-style construct names; the trailing letter is the construct ID)
T3 sequence (Q13188 16-313): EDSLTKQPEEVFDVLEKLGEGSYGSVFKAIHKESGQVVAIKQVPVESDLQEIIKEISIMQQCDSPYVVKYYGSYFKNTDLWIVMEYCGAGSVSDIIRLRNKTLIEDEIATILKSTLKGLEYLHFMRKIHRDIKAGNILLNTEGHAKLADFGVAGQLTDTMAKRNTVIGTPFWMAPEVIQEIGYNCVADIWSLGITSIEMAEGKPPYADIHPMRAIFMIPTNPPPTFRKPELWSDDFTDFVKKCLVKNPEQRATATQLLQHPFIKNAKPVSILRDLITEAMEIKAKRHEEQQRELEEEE
Assay type: binding

Compared with `O=C(NCc1ccc(C(F)(F)F)cc1)Nc1ccc2cc1OCCOCCNc1ccn3ncc-2c3n1` [compound 28], `COc1ccc(CNC(=O)Nc2ccc3cc2OCCOCCNc2ccn4ncc-3c4n2)cc1` [compound 31] is lower in ΔTm at 10 µM: 5.1 °C for the first, 4.4 °C for the second.

With `CN1CCN(C(=O)Nc2ccc3cc2OCCOCCNc2ccn4ncc-3c4n2)CC1` [compound 35] the ΔTm at 10 µM was 3.3 °C.

Each molecule was assayed against T4, STK4 (STK4A) (Homo sapiens, UniProt Q13043) (assay: DSF Tm panel). Details: 10 μM compound.
T4 construct: purchased in-house DSF kinase panel (SGC-style construct names; the trailing letter is the construct ID)
T4 sequence (Q13043 1-311): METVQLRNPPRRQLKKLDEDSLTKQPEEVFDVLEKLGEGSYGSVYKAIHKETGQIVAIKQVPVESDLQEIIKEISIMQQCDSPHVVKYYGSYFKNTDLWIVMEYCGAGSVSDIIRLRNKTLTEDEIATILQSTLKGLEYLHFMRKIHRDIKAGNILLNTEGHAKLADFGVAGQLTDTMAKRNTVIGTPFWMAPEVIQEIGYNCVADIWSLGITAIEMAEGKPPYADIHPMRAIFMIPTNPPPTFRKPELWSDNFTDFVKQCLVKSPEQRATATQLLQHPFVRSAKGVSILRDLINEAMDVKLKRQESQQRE
Assay type: binding

First: O=C(NCc1ccc(C(F)(F)F)cc1)Nc1ccc2cc1OCCOCCNc1ccn3ncc-2c3n1 [compound 28]
Second: COc1ccc(CNC(=O)Nc2ccc3cc2OCCOCCNc2ccn4ncc-3c4n2)cc1 [compound 31]
The ΔTm at 10 µM of the first is higher: 4.3 °C for the first, 4.1 °C for the second.

With `CN1CCN(C(=O)Nc2ccc3cc2OCCOCCNc2ccn4ncc-3c4n2)CC1` [compound 35] the ΔTm at 10 µM was 0.9 °C.

What follows are molecules tested against T5, DYRK1AA (Homo sapiens, UniProt Q13627) (assay: DSF Tm panel). Details: 10 μM compound.
T5 construct: purchased in-house DSF kinase panel (SGC-style construct names; the trailing letter is the construct ID)
Assay type: binding

First: O=C(NCc1ccc(C(F)(F)F)cc1)Nc1ccc2cc1OCCOCCNc1ccn3ncc-2c3n1 [compound 28]
Second: COc1ccc(CNC(=O)Nc2ccc3cc2OCCOCCNc2ccn4ncc-3c4n2)cc1 [compound 31]
The ΔTm at 10 µM of the first is higher: 1.6 °C for the first, 0.3 °C for the second.

For `CN1CCN(C(=O)Nc2ccc3cc2OCCOCCNc2ccn4ncc-3c4n2)CC1` [compound 35], the ΔTm at 10 µM was -1.5 °C.

What follows are molecules tested against T6, MELKA (Homo sapiens, UniProt Q14680) (assay: DSF Tm panel). Details: 10 μM compound.
T6 construct: purchased in-house DSF kinase panel (SGC-style construct names; the trailing letter is the construct ID)
T6 sequence (Q14680 1-340): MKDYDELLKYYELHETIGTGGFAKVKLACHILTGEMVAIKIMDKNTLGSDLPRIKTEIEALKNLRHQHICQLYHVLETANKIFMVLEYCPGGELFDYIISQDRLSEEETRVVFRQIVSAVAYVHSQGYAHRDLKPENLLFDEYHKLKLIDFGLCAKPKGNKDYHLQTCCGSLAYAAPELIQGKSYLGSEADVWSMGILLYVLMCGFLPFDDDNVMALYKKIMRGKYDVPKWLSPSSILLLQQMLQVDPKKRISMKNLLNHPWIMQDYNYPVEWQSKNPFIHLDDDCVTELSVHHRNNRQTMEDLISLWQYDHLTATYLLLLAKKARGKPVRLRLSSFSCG
Assay type: binding

First: O=C(NCc1ccc(C(F)(F)F)cc1)Nc1ccc2cc1OCCOCCNc1ccn3ncc-2c3n1 [compound 28]
Second: COc1ccc(CNC(=O)Nc2ccc3cc2OCCOCCNc2ccn4ncc-3c4n2)cc1 [compound 31]
The ΔTm at 10 µM of the first is lower: 0.9 °C for the first, 1.7 °C for the second.

For `CN1CCN(C(=O)Nc2ccc3cc2OCCOCCNc2ccn4ncc-3c4n2)CC1` [compound 35], the ΔTm at 10 µM was 2.2 °C.

Each molecule was assayed on RPS6KA1A (assay: DSF Tm panel). Details: 10 μM compound.
Assay type: binding

`O=C(NCc1ccc(C(F)(F)F)cc1)Nc1ccc2cc1OCCOCCNc1ccn3ncc-2c3n1` [compound 28] was tested, and the “ΔTm RPS6KA1A” value was 0,2 °C.
With `CN1CCN(C(=O)Nc2ccc3cc2OCCOCCNc2ccn4ncc-3c4n2)CC1` [compound 35] the “ΔTm RPS6KA1A” value was 0,7 °C.

Each molecule was assayed against T7, EPHA2 (EPHA2A) (Homo sapiens, UniProt P29317) (assay: DSF Tm panel). Details: 10 μM compound.
T7 construct: purchased in-house DSF kinase panel (SGC-style construct names; the trailing letter is the construct ID)
T7 sequence (P29317 596-900): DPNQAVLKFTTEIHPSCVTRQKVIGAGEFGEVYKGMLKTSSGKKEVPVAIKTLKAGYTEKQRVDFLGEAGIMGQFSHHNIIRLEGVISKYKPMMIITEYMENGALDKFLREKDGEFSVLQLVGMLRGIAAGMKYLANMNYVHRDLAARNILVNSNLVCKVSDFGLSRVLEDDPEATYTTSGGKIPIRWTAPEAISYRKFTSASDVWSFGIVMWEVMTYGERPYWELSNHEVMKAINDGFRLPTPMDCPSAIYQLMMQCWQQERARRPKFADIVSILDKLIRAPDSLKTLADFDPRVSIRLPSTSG
Assay type: binding

Going from `O=C(NCc1ccc(C(F)(F)F)cc1)Nc1ccc2cc1OCCOCCNc1ccn3ncc-2c3n1` [compound 28] to `COc1ccc(CNC(=O)Nc2ccc3cc2OCCOCCNc2ccn4ncc-3c4n2)cc1` [compound 31], the ΔTm at 10 µM rises from 0.1 °C to 0.4 °C.

Work on `CN1CCN(C(=O)Nc2ccc3cc2OCCOCCNc2ccn4ncc-3c4n2)CC1` [compound 35] yielded a ΔTm at 10 µM of 0.6 °C.

These molecules were tested against T8, NEK1A (Homo sapiens, UniProt Q96PY6) (assay: DSF Tm panel). Details: 10 μM compound.
T8 construct: purchased in-house DSF kinase panel (SGC-style construct names; the trailing letter is the construct ID)
T8 sequence (Q96PY6 1-328): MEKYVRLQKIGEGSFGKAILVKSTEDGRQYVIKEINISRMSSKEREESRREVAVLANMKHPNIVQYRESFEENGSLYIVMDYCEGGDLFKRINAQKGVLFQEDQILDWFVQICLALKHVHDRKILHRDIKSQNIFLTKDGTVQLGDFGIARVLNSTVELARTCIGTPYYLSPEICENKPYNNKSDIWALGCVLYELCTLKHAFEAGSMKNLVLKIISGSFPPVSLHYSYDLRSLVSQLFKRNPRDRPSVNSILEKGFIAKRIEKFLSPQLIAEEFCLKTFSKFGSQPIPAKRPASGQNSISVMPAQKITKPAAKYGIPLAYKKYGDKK
Assay type: binding

Going from `O=C(NCc1ccc(C(F)(F)F)cc1)Nc1ccc2cc1OCCOCCNc1ccn3ncc-2c3n1` [compound 28] to `COc1ccc(CNC(=O)Nc2ccc3cc2OCCOCCNc2ccn4ncc-3c4n2)cc1` [compound 31], the ΔTm at 10 µM falls from 0 °C to -0.4 °C.

Work on `CN1CCN(C(=O)Nc2ccc3cc2OCCOCCNc2ccn4ncc-3c4n2)CC1` [compound 35] yielded a ΔTm at 10 µM of 0.4 °C.

What follows are molecules tested against T9, MAPK13A (Homo sapiens, UniProt O15264) (assay: DSF Tm panel). Details: 10 μM compound.
T9 construct: purchased in-house DSF kinase panel (SGC-style construct names; the trailing letter is the construct ID)
T9 sequence (O15264 1-365): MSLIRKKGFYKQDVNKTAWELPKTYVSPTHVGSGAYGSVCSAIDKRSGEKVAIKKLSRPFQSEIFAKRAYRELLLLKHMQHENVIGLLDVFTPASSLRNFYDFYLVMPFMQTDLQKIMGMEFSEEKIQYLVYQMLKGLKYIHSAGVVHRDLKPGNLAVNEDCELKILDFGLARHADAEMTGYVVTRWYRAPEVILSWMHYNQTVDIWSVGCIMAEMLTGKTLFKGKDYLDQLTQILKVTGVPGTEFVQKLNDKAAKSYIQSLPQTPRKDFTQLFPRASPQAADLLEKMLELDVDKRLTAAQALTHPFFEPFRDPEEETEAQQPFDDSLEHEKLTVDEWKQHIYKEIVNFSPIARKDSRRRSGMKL
Assay type: binding

First: O=C(NCc1ccc(C(F)(F)F)cc1)Nc1ccc2cc1OCCOCCNc1ccn3ncc-2c3n1 [compound 28]
Second: COc1ccc(CNC(=O)Nc2ccc3cc2OCCOCCNc2ccn4ncc-3c4n2)cc1 [compound 31]
The ΔTm at 10 µM of the first is higher: -0.5 °C for the first, -1.3 °C for the second.

Work on `CN1CCN(C(=O)Nc2ccc3cc2OCCOCCNc2ccn4ncc-3c4n2)CC1` [compound 35] yielded a ΔTm at 10 µM of 0.4 °C.

Each molecule was assayed against T10, CDKL1A (Homo sapiens, UniProt Q00532) (assay: DSF Tm panel). Details: 10 μM compound.
T10 construct: purchased in-house DSF kinase panel (SGC-style construct names; the trailing letter is the construct ID)
T10 sequence (Q00532 1-303): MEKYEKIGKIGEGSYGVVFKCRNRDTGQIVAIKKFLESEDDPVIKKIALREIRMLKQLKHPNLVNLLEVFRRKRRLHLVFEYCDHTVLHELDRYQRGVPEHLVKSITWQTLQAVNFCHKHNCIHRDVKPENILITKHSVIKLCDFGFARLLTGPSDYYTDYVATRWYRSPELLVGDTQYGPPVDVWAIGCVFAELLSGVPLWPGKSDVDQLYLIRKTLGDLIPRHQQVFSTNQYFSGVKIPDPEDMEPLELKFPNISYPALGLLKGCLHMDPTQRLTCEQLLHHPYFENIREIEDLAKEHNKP
Assay type: binding

`O=C(NCc1ccc(C(F)(F)F)cc1)Nc1ccc2cc1OCCOCCNc1ccn3ncc-2c3n1` [compound 28] and `COc1ccc(CNC(=O)Nc2ccc3cc2OCCOCCNc2ccn4ncc-3c4n2)cc1` [compound 31] are the same in ΔTm at 10 µM: 0.6 °C for the first, 0.6 °C for the second.

`CN1CCN(C(=O)Nc2ccc3cc2OCCOCCNc2ccn4ncc-3c4n2)CC1` [compound 35] gave a ΔTm at 10 µM of -0.2 °C.

Each molecule was assayed on CDC42BPAA (assay: DSF Tm panel). Details: 10 μM compound.
Assay type: binding

For `O=C(NCc1ccc(C(F)(F)F)cc1)Nc1ccc2cc1OCCOCCNc1ccn3ncc-2c3n1` [compound 28], the “ΔTm CDC42BPAA” value was 0,9 °C.
`COc1ccc(CNC(=O)Nc2ccc3cc2OCCOCCNc2ccn4ncc-3c4n2)cc1` [compound 31] was tested, and the “ΔTm CDC42BPAA” value was 0,0 °C.
`CN1CCN(C(=O)Nc2ccc3cc2OCCOCCNc2ccn4ncc-3c4n2)CC1` [compound 35] was tested, and the “ΔTm CDC42BPAA” value was -0,6 °C.

What follows are molecules tested against T11, VRK1A (Homo sapiens, UniProt Q99986) (assay: DSF Tm panel). Details: 10 μM compound.
T11 construct: purchased in-house DSF kinase panel (SGC-style construct names; the trailing letter is the construct ID)
T11 sequence (Q99986 1-396): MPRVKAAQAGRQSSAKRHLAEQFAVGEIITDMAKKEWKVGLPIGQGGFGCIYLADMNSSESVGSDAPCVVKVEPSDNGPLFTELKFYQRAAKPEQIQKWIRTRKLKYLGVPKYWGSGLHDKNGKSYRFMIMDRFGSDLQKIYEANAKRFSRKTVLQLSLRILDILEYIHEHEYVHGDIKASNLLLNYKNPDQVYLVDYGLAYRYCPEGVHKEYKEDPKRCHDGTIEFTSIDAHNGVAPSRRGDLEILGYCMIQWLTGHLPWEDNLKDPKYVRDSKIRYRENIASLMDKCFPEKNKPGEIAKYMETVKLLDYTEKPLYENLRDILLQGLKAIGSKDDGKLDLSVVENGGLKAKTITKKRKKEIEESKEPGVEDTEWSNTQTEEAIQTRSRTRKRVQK
Assay type: binding

First: O=C(NCc1ccc(C(F)(F)F)cc1)Nc1ccc2cc1OCCOCCNc1ccn3ncc-2c3n1 [compound 28]
Second: COc1ccc(CNC(=O)Nc2ccc3cc2OCCOCCNc2ccn4ncc-3c4n2)cc1 [compound 31]
The ΔTm at 10 µM of the first is higher: 0.6 °C for the first, 0.2 °C for the second.

Work on `CN1CCN(C(=O)Nc2ccc3cc2OCCOCCNc2ccn4ncc-3c4n2)CC1` [compound 35] yielded a ΔTm at 10 µM of -0.1 °C.

These molecules were tested against SLK (Homo sapiens, UniProt Q9H2G2) (assay: NanoBRET target engagement assay). Details: HEK293T cells.
SLK, sequence (Q9H2G2 whole entry): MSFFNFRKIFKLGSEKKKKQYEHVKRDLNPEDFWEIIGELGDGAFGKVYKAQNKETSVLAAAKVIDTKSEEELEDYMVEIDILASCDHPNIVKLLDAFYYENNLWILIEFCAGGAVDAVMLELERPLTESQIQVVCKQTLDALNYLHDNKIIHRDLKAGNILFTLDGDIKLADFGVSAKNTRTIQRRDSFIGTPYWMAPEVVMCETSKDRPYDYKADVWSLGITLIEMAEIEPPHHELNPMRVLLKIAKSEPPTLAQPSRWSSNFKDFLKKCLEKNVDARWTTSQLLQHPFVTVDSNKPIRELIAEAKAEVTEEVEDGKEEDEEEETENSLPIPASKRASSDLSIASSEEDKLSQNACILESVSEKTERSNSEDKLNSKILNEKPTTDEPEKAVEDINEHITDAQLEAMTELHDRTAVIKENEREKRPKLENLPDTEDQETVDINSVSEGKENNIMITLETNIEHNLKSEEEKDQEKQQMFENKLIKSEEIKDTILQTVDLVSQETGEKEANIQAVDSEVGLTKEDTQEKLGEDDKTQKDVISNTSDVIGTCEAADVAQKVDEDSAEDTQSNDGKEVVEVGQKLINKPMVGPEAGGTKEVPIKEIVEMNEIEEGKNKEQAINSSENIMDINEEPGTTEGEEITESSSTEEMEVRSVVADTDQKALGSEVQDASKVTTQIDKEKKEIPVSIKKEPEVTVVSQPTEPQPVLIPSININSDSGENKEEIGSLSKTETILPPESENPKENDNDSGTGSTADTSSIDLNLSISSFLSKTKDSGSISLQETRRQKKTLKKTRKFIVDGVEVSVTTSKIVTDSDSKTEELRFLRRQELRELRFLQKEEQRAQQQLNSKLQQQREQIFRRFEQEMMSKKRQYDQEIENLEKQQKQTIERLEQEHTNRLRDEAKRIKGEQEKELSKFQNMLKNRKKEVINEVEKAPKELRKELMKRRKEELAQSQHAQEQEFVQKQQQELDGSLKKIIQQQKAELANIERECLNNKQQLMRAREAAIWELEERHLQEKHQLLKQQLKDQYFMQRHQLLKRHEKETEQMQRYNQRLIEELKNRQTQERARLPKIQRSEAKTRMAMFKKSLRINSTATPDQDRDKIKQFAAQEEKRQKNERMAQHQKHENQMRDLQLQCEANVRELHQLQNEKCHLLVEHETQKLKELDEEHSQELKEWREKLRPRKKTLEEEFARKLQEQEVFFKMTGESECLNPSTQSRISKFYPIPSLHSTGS
Assay type: cell-based
Parameters: has a greater impact on the full-length protein than on the kinase domains; host or cells: HEK293T (ATCC CRL-3216)

`O=C(NCc1ccc(C(F)(F)F)cc1)Nc1ccc2cc1OCCOCCNc1ccn3ncc-2c3n1` [compound 28] and `CN1CCN(C(=O)Nc2ccc3cc2OCCOCCNc2ccn4ncc-3c4n2)CC1` [compound 35] cannot be ordered by EC50: greater than 50 µM for the first, greater than 50 µM for the second.
